Data from patent US8895585B2, “Nicotinamide derivative or salt thereof” (FUJIFILM Corporation, priority 2010, dated 2014).

What was measured:
THP-1 cells [1] = assay: TNFα generation assay; format: cell-based, human; conditions: Table 22, read-out: IC50 in TNFα generation assay
How it was run: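 THP-1 cells differentiated to macrophage-like cells with 10 ng/ml IFN-γ for 2 days, preincubated with compound 30 min at room temperature, then cultured 7 h on plates coated with human IgG (10 μg/ml). Secreted TNFα measured by ELISA or AlphaLISA.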

THP-1 cells [2] = assay: Antibody-dependent phagocytosis assay; format: cell-based; conditions: Homo sapiens; THP-1 cells induced to differentiate with IFNγ; opsonized Escherichia coli; Table 23; read-out: IC50 upon phagocytosis inhibition
Procedure: THP-1 cells (2×10^5 cells/ml) which are human monocyte-like cell line were cultured in the presence of 10 ng/ml IFNγ for 2 days, so that the cells were induced to differentiate into macrophage-like cells. THP-1 cells that had been induced to differentiate were collected. The cells (5×10^4 cells/well) were reacted with test compounds having given concentrations at room temperature for 30 minutes. Thereafter, Escherichia coli (Life Technologies) labeled with a pH-sensitive dye (pHrodo) was subjected to opsonization using an anti-Escherichia coli antibody (Molecular Probes). Then, the resultant was added to THP-1 cells mixed with test compounds that had been induced to differentiate, followed by incubation at 37° C. for 3 hours. At the time of addition of opsonized Escherichia coli, cell-permeable fluorescent dye (Calcein AM) were simultaneously added thereto, and phagocytosis of opsonized Escherichia coli in viable cells was quantitatively determined using an IN Cell Analyzer.
In addition, the following are used in Table 23 to denote standards for evaluating IC50 upon phagocytosis inhibition. • A: Up to 1 μM • B: 1 to 3 μM • C: 3 to 6 μM

[3] = target: T1, glutathione S-transferase (GST)-fused full-length human Syk protein (Homo sapiens, UniProt P43405); assay: Syk enzyme assay; format: biochemical; conditions: Syk enzyme assay, Test Example 1; read-out: IC50 of Syk-inhibitory activity
T1 construct: (GST)-fused full-length human Syk protein; GST (glutathione S-transferase); purchased Carna Biosciences
How it was run: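 IC50 values come from a time-resolved FRET readout (615 and 665 nm) of substrate phosphorylation, measured after an EDTA stop and 1 h antibody binding. The kinase reaction ran 40 min at room temperature with 27 μM ATP and 0.4 μM biotin-peptide, following a 15 min compound preincubation with baculovirus-made GST-full-length human Syk.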

[4] = Homo sapiens, THP-1, THP-1 cells

| IC50 (THP-1 cells [1]; [4]) [µM] | IC50 (THP-1 cells [2]) [µM] | IC50 [3] [µM] | IC50 (THP-1 cells [1]; THP-1 cells) [µM] | SMILES |
| --- | --- | --- | --- | --- |
| < 0.065 | 1 to 3 | < 0.01 | – | NC(=O)c1cc(F)c(N[C@@H]2CCCC[C@@H]2N)nc1Nc1ccnc2[nH]ccc12 (relative stereo) [Example 004-060] |
| < 0.065 | 1 to 3 | < 0.01 | – | NC(=O)c1cc(F)c(N[C@@H]2CCCC[C@@H]2N)nc1Nc1cc(F)c2[nH]ccc2c1 (relative stereo) [Example 004-079, 6-(cis-2-aminocyclohexylamino)-5-fluoro-2-((7-fluoro-1H-indol-5-yl)amino)nicotinamide] |
| – | < 1 | < 0.01 | – | COc1cccc2cc(Nc3nc(N[C@@H]4CCCC[C@@H]4N)c(F)cc3C(N)=O)cnc12 (relative stereo) [Example 004-120, 6-(cis-2-aminocyclohexylamino)-5-fluoro-2-((8-methoxyquinolin-3-yl)amino)nicotinamide] |
| 0.065 to 0.13 | 1 to 3 | 0.01 to 0.05 | – | N#Cc1cc(Nc2nc(N[C@@H]3CCCC[C@@H]3N)c(F)cc2C(N)=O)cnc1N1CCOCC1 (relative stereo) [Example 004-228, 6-((cis-2-aminocyclohexyl)amino)-2-((5-cyano-6-morpholinopyridin-3-yl)amino)-5-fluoronicotinamide] |
| < 0.065 | 1 to 3 | < 0.01 | – | NC(=O)c1cc(F)c(NC2CCCCC2N)nc1Nc1cncc(-c2ccccc2)c1 (centres unmarked) [Example 002-001] |
| 0.065 to 0.13 | 1 to 3 | < 0.01 | – | Cc1ncc(Nc2nc(NC3CCCCC3N)c(F)cc2C(N)=O)cc1-n1nccn1 (centres unmarked) [Example 002-134] |
| < 0.065 | < 1 | < 0.01 | – | CC(=O)Nc1cccc2cc(Nc3nc(N[C@@H]4CCCC[C@@H]4N)c(F)cc3C(N)=O)cnc12 [Example 004-008] |
| < 0.065 | 1 to 3 | < 0.01 | – | Cn1ccc2c(Nc3nc(N[C@@H]4CCCC[C@@H]4N)c(F)cc3C(N)=O)ccnc21 [Example 004-013] |
| – | 3 to 6 | 0.01 to 0.05 | 0.065 to 0.13 | Cc1ccc(Nc2nc(N[C@@H]3CCCC[C@@H]3N)c(F)cc2C(N)=O)cn1 [Example 004-017] |
| 0.13 to 0.2 | 1 to 3 | < 0.01 | – | COc1cncc(Nc2nc(N[C@@H]3CCCC[C@@H]3N)c(F)cc2C(N)=O)c1 [Example 004-031] |
| 0.065 to 0.13 | 1 to 3 | < 0.01 | – | NC(=O)c1cc(F)c(N[C@@H]2CCCC[C@@H]2N)nc1Nc1cncc(-n2nccn2)c1 [Example 004-042] |
| < 0.065 | < 1 | < 0.01 | – | COc1cc(Nc2nc(NC[C@H](C)N)c(F)cc2C(N)=O)cc(OC)n1 [Example 006-098, (S)-6-((2-aminopropyl)amino)-2-((2,6-dimethoxypyridin-4-yl)amino)-5-fluoronicotinamide] |
| 0.065 to 0.13 | < 1 | < 0.01 | – | COCCOc1cc(Nc2nc(N[C@@H](CN)CC(C)C)c(F)cc2C(N)=O)ccn1 [Example 006-157, (R)-6-((1-amino-4-methylpentan-2-yl)amino)-5-fluoro-2-((2-(2-methoxyethoxy)pyridin-4-yl)amino)nicotinamide] |
| 0.065 to 0.13 | 1 to 3 | 0.01 to 0.05 | – | NC(=O)c1cc(F)c(N[C@@H]2CCCC[C@@H]2N)nc1Nc1ccc(N2CCOCC2)nc1 [Example 006-165, 6-(((1R,2S)-2-aminocyclohexyl)amino)-5-fluoro-2-((6-morpholinopyridin-3-yl)amino)nicotinamide] |
| – | 1 to 3 | < 0.01 | 0.065 to 0.13 | COCCOc1ccc2cc(Nc3nc(N[C@@H]4CCCC[C@@H]4N)c(F)cc3C(N)=O)cnc2c1 [Example 006-173, 6-(((1R,2S)-2-aminocyclohexyl)amino)-5-fluoro-2-((7-(2-methoxyethoxy)quinolin-3-yl)amino)nicotinamide] |
| 0.13 to 0.2 | 1 to 3 | < 0.01 | – | Cc1cc(Nc2nc(N[C@@H](CN)CC(C)C)c(F)cc2C(N)=O)cnc1C [Example 006-177, (R)-6-((1-amino-4-methylpentan-2-yl)amino)-2-((5,6-dimethylpyridin-3-yl)amino)-5-fluoronicotinamide] |

| IC50 (THP-1 cells [1]; [4]) [µM] | IC50 (THP-1 cells [2]) [µM] | IC50 [3] [µM] | IC50 (THP-1 cells [1]; THP-1 cells) [µM] | SMILES |
| --- | --- | --- | --- | --- |
| < 0.065 | 1 to 3 | < 0.01 | – | CC[C@@H](Nc1nc(Nc2ccc3c(cnn3CC)c2)c(C(N)=O)cc1F)[C@H](C)N [Example 006-211, 6-(((2S,3R)-2-aminopentan-3-yl)amino)-2-((1-ethyl-1H-indazol-5-yl)amino)-5-fluoronicotinamide] |
| 0.065 to 0.13 | 1 to 3 | < 0.01 | – | CCC[C@@H](Nc1nc(Nc2cncc(-n3cccn3)c2)c(C(N)=O)cc1F)[C@H](C)N [Example 006-219, 2-((5-(1H-pyrazol-1-yl)pyridin-3-yl)amino)-6-(((2S,3R)-2-aminohexan-3-yl)amino)-5-fluoronicotinamide] |
| < 0.065 | 1 to 3 | < 0.01 | – | CCC[C@@H](Nc1nc(Nc2ccnc(OC)c2)c(C(N)=O)cc1F)[C@H](C)N [Example 006-249, 6-(((2S,3R)-2-aminohexan-3-yl)amino)-5-fluoro-2-((2-methoxypyridin-4-yl)amino)nicotinamide] |
| < 0.065 | 1 to 3 | < 0.01 | – | CC[C@@H](Nc1nc(Nc2cncc(-c3ccccc3F)c2)c(C(N)=O)cc1F)[C@H](C)N [Example 006-257, 6-(((2S,3R)-2-aminopentan-3-yl)amino)-5-fluoro-2-((5-(2-fluorophenyl)pyridin-3-yl)amino)nicotinamide] |
| < 0.065 | 1 to 3 | < 0.01 | – | CC[C@@H](Nc1nc(Nc2ccc3c(OC)nccc3c2)c(C(N)=O)cc1F)[C@H](C)N [Example 006-263, 6-(((2S,3R)-2-aminopentan-3-yl)amino)-5-fluoro-2-((1-methoxyisoquinolin-6-yl)amino)nicotinamide] |
| – | 3 to 6 | < 0.01 | – | NC(=O)c1cc(F)c(NC2CCCCC2N)nc1Nc1cccc(C(F)(F)F)c1 (centres unmarked) [Example 008-007] |
| – | 3 to 6 | – | – | NC(=O)c1cc(Nc2nc(NC3CCCC[C@@H]3N)c(F)cc2C(N)=O)ccn1 (some centres unmarked) [Example 029-012] |
| < 0.065 | – | < 0.01 | – | NC(=O)c1cc(F)c(N[C@@H]2CCCC[C@@H]2N)nc1Nc1cncc2ccccc12 [Example 37-2, 6-((1R,2S)-2-aminocyclohexylamino)-5-fluoro-2-((isoquinolin-4-yl)amino)nicotinamide] |
| < 0.065 | – | < 0.01 | – | NC(=O)c1cc(F)c(N[C@@H]2CCCC[C@@H]2N)nc1Nc1ccc2ncccc2c1 [Example 37-3, 6-((1R,2S)-2-aminocyclohexylamino)-5-fluoro-2-((quinolin-6-yl)amino)nicotinamide] |
| < 0.065 | – | < 0.01 | – | NC(=O)c1cc(F)c(N[C@@H]2CCCC[C@@H]2N)nc1Nc1cnc2ccccc2c1 [Example 37-4, 6-((1R,2S)-2-aminocyclohexylamino)-5-fluoro-2-((quinolin-3-yl)amino)nicotinamide] |
| 0.065 to 0.13 | – | < 0.01 | – | Cn1ncc2cc(Nc3nc(N[C@@H]4CCCC[C@@H]4N)c(F)cc3C(N)=O)ccc21 [Example 37-5, 6-((1R,2S)-2-aminocyclohexylamino)-5-fluoro-2-((1-methyl-1H-indazol-5-yl)amino)-nicotinamide] |
| < 0.065 | – | < 0.01 | – | CC[C@H](CN)Nc1nc(Nc2ccc3ncccc3c2)c(C(N)=O)cc1F [Example 39-2, (R)-6-((1-aminobutan-2-yl)amino)-5-fluoro-2-((quinolin-6-yl)amino)nicotinamide] |
| < 0.065 | – | < 0.01 | – | C[C@H](CN)Nc1nc(Nc2ccc3ncccc3c2)c(C(N)=O)cc1F [Example 39-3, (R)-6-((1-aminopropan-2-yl)amino)-5-fluoro-2-((quinolin-6-yl)amino)nicotinamide] |
| 0.065 to 0.13 | – | < 0.01 | – | NC[C@H](Nc1nc(Nc2ccc3ncccc3c2)c(C(N)=O)cc1F)c1ccccc1 [Example 39-4, (R)-6-((2-amino-1-phenylethyl)amino)-5-fluoro-2-((quinolin-6-yl)amino)nicotinamide] |
| – | – | < 0.01 | 0.065 to 0.13 | NC(=O)c1cc(F)c(N[C@@H]2CCCC[C@@H]2N)nc1Nc1cncc(-c2cccc(N)c2)c1 [Example 043-000] |
| 0.065 to 0.13 | – | 0.01 to 0.05 | – | Cc1cc(Nc2nc(N[C@H](CCCO)[C@H](C)N)c(F)cc2C(N)=O)cnc1C [Example 044-000] |
